{"source": "patent US6395727B1", "about": "“Method of treating Bulimia Nervosa and related eating disorders by administration of atypical antipsychotic medications” (The Cincinnati Children's Hospital Research Foundation, priority 1999, dated 2002)", "key": {"[1]": {"conditions": "some mammals; cited from earlier work"}, "[2]": {"conditions": "cited from earlier work"}, "Bulimia Nervosa [3]": {"tested_on": "Bulimia Nervosa", "assay": "therapeutic trial of an antidepressant (fluoxetine) before the risperidone trial, same patient", "assay_type": "in vivo, human", "conditions": "fluoxetine 20 mg PO qam, approximately 4 months"}, "Bulimia Nervosa [4]": {"tested_on": "Bulimia Nervosa"}, "[5]": {"conditions": "week four, risperidone 1.5 mg PO at bedtime, fluoxetine 20 mg PO QAM continued"}}, "note": "Read-outs that look alike come from different tables or passages of the source.", "data": [{"smiles": "OCCOCCN1CCN(C2=Nc3ccccc3Sc3ccccc32)CC1", "note": "[Quetiapine, quetiapine]", "values": [{"measurement": "cataract formation", "setting": "[1]", "value": "cause cataract formation"}]}, {"smiles": "Cc1cc2c(s1)Nc1ccccc1N=C2N1CCN(C)CC1", "note": "[Olanzapine, olanzapine]", "values": [{"measurement": "weight gain", "setting": "[2]; in some cases", "value": "up to 1 pound per week"}]}, {"smiles": "CNCCC(Oc1ccc(C(F)(F)F)cc1)c1ccccc1", "note": "(stereo not drawn) [fluoxetine]", "values": [{"measurement": "bingeing and purging", "setting": "Bulimia Nervosa [3]", "value": "has not subsided"}, {"measurement": "depressive symptoms (Zung Depression Scores and self-report)", "setting": "Bulimia Nervosa [3]", "value": "remission of depressive symptoms"}]}, {"smiles": "Cc1nc2n(c(=O)c1CCN1CCC(c3noc4cc(F)ccc34)CC1)CCCC2", "note": "[risperidone, 3-[2-[4-(6-fluoro-1,2-benzisoxazol-3-yl)-1-piperidinyl]ethyl]-6,7,8,9-tetrahydro-2-methyl-4H-pyrido[1,2-a]pyrimidin-4-one]", "values": [{"measurement": "weight gain", "setting": "[2]; in vivo", "value": "minimal"}, {"measurement": "white blood cell count", "setting": "[2]; in vivo", "value": "remains unaffected"}, {"measurement": "cessation of symptoms", "setting": "Bulimia Nervosa [4]; after two weeks, risperidone 0.5 mg PO twice per day, fluoxetine 20 mg PO QAM continued", "value": "has not had any cessation of symptoms"}, {"measurement": "improvement in bulimic symptomatology (journal entries)", "setting": "Bulimia Nervosa [4]; conclusion of 8-week study, risperidone 1.5 mg PO QHS plus fluoxetine", "value": 50, "unit": "%"}, {"measurement": "body image scores improved", "setting": "Bulimia Nervosa [4]; conclusion of 8-week study, risperidone 1.5 mg PO QHS plus fluoxetine, self-rating scale", "value": 50, "unit": "%"}, {"measurement": "differences in baseline and final scores of the anxiety and depression scales", "setting": "Bulimia Nervosa [4]; conclusion of 8-week study, risperidone 1.5 mg PO QHS plus fluoxetine, self-rating scales", "value": "no appreciable differences"}, {"measurement": "reduction in bulimic symptomatology (patient's journal)", "setting": "Bulimia Nervosa [4]; [5]", "value": 30, "unit": "%"}, {"measurement": "side effects to the medications", "setting": "Bulimia Nervosa [4]; [5]", "value": "no side effects"}]}]}
